The nature of series [1]: Liver microsome metabolism stability test, human. In kind it is in vitro ADME. The settings on record: human liver microsomes 0.5 mg/mL, 1 μM compound, 37° C. The method, then:
(§1) Two separate experiments were conducted. a) NADPH: 10 μL of 20 mg/mL liver microsomes and 40 μL of 10 mM NADPH were added to a culture medium. The final concentrations of microsomes and NADPH were 0.5 mg/mL and 1 mM, respectively. b) NADPH free: 10 μL of 20 mg/mL liver microsomes and 40 μL of ultrapure H2O were added to a culture medium. The final concentration of microsomes was 0.5 mg/mL.
(§2) At the beginning of the reaction, 4 μL of 100 μM test compound solution or a control compound solution with a final concentration of 1 μM were added, and proceed at 37° C.
(§3) 50 μL aliquots were taken from the reaction solution at 0, 7, 15, 30, and 60 minutes. The reaction was stopped by adding 4 volumes of cold acetonitrile and IS (100 nM alprazolam, 200 nM labetalol, 200 nM caffeine, and 2 μM ketoprofen). The samples were centrifuged at 3220 grams for 40 minutes. 100 μL supernatant divided equally was mixed with 100 μL of ultrapure H2O, and use for LC-MS/MS analysis.
For orientation: Microsomes from liver hold many membrane-bound enzymes, among them those of drug oxidation.

Another series addresses T1, hTRPV3 (Homo sapiens, UniProt Q8NET8).
T1 construct: expressed in transfected cells; host or cells: HEK-293
T1 sequence (Q8NET8 1-790): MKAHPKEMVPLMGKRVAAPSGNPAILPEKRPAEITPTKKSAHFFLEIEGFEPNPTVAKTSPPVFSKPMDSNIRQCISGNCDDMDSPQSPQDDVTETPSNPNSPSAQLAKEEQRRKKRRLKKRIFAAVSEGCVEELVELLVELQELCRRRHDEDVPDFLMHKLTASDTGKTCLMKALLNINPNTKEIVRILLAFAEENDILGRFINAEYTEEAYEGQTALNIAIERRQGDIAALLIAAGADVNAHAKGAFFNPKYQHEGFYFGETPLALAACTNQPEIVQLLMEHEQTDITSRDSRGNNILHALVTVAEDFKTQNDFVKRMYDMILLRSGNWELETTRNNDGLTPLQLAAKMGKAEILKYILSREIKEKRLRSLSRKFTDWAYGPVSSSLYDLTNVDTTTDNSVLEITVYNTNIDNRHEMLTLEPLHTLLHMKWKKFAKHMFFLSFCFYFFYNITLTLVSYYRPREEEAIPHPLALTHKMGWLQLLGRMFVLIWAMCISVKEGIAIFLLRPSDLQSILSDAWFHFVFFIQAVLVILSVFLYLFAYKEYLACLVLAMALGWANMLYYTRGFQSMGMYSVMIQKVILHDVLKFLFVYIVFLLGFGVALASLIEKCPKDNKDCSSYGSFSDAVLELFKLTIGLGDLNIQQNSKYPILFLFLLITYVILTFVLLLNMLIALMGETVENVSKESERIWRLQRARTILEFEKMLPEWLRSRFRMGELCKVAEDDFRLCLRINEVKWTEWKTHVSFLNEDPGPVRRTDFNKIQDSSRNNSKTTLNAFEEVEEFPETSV
Kind of series: Whole cell patch clamp of TRPV3 current in HEK-293 cells instantaneously expressing TRPV3. In kind it is cell-based. The settings on record: for inhibition at 0.3 µM: HEK293, single concentration 0.3 μM, patch clamp, read-out: Inhibition rate on hTRPV3. The method, then: In this study, HEK-293 cells instantaneously expressing TRPV3 were used for experimental detection.
The operation steps are as follows:
The cells were cultured in DMEM medium containing 10% fetal bovine serum at a temperature of 37° C. and a carbon dioxide concentration of 5%.
Day 1: Cells were inoculated into a 6-well plate with 5×10^5 cells per well.
Day 2: Transfection was performed using Lipofectamine 3000 transfection reagent, with a plasmid to transfection reagent ratio of 1 μg: 2 μL. The total amount of plasmid used per well was 3 μg. Specifically, two sterile centrifuge tubes were taken and 100 μL Opti-MEM was added to each tube. 6 μL Lipofectamine 3000 was added to one tube and mixed well; and 3 μg plasmid was added to another tube and mixed well, and then 6 μL P3000 was added and mixed well; after that, the diluted plasmid DNA was addeds to diluted Lipofectamine 3000 and incubated at room temperature for 10-15 min. DNA liposome complex was dropped into the cells, shaked gently and mixed well, and then cultured in an incubator. The liquid was changed after 4 to 6 h.
Day 3: The cells were digested and seeded into 24 well plates with pre-placed cover slides, with 8×10^3 cells per well.
Day 4: Patch clamp testing was performed.
The voltage stimulation protocol for recording TRPV3 current using whole cell patch clamp is as follows: after forming a whole cell seal, a cell membrane voltage clamp was set at −80 mV. Firstly, a membrane potential was recorded at 0 mV, and then a voltage was command to start from −100 mV, to depolarize in the form of Ramp to 100 mV within 100 ms, and finally restore to 0 mV. Data collection was repeated every 5 seconds to observe the inhibitory effect of pharmaceutical on peak current. Experimental data was collected by EPC 10 amplifier (HEKA) and stored in PatchMaster (HEKA) software.
A microelectrode puller was used to pull the capillary glass tube into a recording electrode. The electrode filled with intracellular fluid was inserted into a microelectrode holder, and a microelectrode manipulator was operated under an inverted microscope to immerse the electrode in extracellular fluid and an electrode resistance (Rpip) was recorded. The electrode was brought into contact with the cell surface and a negative pressure suction was applied to form a high resistance seal (GΩ). At this point, a fast capacitance compensation was performed, and negative pressure was continued to apply in order to break the cell membrane, so that a whole cell recording mode was formed. Then, a slow capacitance compensation was performed and experimental parameters such as film capacitance (Cm) and series resistance (Rs) were recorded. No leakage compensation was provided.
When the TRPV3 current recorded by the whole cell had stabilized, administration was started. Each pharmaceutical concentration acted for 5 minutes (or until the current stabilized) before detecting the next concentration. A plurality of concentrations was tested for each test compound. A cover glass covered with cells was placed in a recording bath under an inverted microscope. A blank control extracellular solution and a working fluid for the compound to be tested sequentially flowed through the recording bath from low concentration to high concentration using gravity perfusion to act on the cells. Liquid exchange was performed using a peristaltic pump during recording. The current detected by each cell in the extracellular fluid without the compound served as its own control group. Each concentration was independently tested twice using at least two cells. All electrophysiological tests were conducted at room temperature.
Background: Patch clamp records ionic current or voltage across a cell membrane.

Series [2] is described as follows: Liver microsome metabolism stability test, rat. It is filed as in vitro ADME. Particulars: rat liver microsomes 0.5 mg/mL, 1 μM compound, 37° C. How it is done:
as §1, §2, §3

The next series deals with hTRPV1 (Homo sapiens, UniProt Q8NER1). Description: Patch clamp method, hTRPV1. In kind it is cell-based.
In another series the target is hTRPV4 (Homo sapiens, UniProt Q9HBA0). Kind of series: Patch clamp method, hTRPV4. In kind it is cell-based.
In the next series the target is hTRPA1 (Homo sapiens, UniProt O75762). Description: Patch clamp method, hTRPA1. It is filed as cell-based.

These results are taken from patent US20260176258A1, “A THIOETHER COMPOUND HAVING SOFT DRUG PROPERTIES, A PHARMACEUTICAL COMPOSITION AND USE THEREOF” (Prime Gene Therapeutics Co., Ltd., priority 2022, published 2026).

Sequence of hTRPA1 (O75762 whole entry): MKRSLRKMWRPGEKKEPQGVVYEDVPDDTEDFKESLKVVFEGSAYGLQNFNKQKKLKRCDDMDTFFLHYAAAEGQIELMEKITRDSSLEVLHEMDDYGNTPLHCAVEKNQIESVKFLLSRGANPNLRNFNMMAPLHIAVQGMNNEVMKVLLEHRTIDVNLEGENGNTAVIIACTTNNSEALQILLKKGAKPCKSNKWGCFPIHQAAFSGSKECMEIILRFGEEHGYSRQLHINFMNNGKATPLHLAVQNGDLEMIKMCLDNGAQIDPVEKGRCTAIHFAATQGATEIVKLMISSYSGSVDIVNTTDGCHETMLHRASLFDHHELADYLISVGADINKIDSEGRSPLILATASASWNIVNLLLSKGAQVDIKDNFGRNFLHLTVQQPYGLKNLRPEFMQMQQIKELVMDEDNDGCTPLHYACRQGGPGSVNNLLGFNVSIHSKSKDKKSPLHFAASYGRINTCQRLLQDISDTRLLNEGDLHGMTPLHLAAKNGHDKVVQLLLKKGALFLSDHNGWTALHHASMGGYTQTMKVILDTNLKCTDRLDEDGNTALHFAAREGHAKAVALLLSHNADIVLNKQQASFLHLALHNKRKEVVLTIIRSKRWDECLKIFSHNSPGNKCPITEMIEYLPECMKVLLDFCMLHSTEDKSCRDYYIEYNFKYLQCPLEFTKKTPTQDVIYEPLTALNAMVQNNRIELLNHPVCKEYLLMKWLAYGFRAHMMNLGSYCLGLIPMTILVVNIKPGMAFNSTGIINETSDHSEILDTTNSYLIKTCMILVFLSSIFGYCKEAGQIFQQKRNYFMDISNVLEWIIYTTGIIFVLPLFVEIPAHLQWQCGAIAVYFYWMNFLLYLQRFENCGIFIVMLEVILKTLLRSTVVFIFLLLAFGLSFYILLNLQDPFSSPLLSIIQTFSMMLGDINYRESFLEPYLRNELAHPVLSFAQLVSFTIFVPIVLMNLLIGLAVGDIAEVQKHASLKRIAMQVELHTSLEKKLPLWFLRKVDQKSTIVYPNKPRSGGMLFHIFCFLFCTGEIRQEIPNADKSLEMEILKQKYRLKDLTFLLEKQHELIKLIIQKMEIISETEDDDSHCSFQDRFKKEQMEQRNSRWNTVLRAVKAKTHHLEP
Sequence of hTRPV4 (Q9HBA0 whole entry): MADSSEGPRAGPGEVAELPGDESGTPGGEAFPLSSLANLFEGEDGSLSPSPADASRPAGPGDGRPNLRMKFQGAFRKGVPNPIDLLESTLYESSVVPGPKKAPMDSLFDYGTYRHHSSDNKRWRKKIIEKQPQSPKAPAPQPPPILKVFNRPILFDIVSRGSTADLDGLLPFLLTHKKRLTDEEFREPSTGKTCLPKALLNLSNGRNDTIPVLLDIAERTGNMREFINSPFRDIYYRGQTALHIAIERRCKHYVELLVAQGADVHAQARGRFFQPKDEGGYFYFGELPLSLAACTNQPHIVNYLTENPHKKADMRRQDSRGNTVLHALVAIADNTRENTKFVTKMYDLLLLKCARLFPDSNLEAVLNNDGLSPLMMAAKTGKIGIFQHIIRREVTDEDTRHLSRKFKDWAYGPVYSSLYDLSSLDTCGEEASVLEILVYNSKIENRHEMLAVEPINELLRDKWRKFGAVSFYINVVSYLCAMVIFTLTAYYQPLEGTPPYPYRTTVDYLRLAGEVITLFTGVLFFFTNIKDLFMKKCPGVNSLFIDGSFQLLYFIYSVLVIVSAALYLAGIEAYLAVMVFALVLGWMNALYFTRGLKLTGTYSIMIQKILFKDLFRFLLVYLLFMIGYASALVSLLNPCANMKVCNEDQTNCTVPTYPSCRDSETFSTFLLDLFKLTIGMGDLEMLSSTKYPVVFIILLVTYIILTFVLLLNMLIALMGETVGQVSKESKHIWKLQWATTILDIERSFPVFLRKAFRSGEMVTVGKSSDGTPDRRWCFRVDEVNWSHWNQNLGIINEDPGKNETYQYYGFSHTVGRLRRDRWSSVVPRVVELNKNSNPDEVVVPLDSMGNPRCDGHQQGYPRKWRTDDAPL
Sequence of hTRPV1 (Q8NER1 whole entry): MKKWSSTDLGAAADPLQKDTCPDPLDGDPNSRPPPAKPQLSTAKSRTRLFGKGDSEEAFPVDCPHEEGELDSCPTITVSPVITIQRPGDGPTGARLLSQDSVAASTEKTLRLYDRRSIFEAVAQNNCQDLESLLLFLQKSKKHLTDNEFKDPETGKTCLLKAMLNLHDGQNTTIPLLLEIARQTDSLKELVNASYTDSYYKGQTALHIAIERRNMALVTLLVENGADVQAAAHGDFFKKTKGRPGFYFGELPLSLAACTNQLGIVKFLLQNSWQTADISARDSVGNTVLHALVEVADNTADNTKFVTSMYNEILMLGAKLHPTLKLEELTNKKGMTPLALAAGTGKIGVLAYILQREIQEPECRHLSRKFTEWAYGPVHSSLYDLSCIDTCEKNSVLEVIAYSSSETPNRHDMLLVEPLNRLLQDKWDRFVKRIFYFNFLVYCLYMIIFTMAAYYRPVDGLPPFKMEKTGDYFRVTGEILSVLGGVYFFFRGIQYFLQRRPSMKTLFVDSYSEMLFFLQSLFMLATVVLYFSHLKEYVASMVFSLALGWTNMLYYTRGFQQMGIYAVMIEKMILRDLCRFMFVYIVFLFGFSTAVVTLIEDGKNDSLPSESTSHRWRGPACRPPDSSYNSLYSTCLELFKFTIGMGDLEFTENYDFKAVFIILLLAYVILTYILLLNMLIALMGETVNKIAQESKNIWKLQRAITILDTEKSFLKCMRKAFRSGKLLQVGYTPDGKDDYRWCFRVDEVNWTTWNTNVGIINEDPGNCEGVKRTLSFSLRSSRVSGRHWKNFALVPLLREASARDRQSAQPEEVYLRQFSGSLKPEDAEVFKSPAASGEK

Broadly, the inhibition is the percentage by which the read-out fell short of the control. For the compound `CC(C)c1ccccc1-c1ccc(N2CC[C@H](Sc3ccc(Cl)cn3)C2)c(CO)c1` [Example 1, ((S)-(4-(3-(5-chloropyridin-2-yl)thio)pyrrolidin-1-yl)-2′-isopropyl-[1,1′-biphenyl]-3-yl) methanol], the “in vitro Clint” value in series [1] was 135.00 microliters/minute/milligrams; in series [2], 112.14 microliters/minute/milligrams. Besides, the half-life at 1 μM in series [1] (read-out: in vitro T1/2) was determined as 10.3 min; in series [2] (read-out: in vitro T1/2), 12.4 min. In addition, the inhibition at 0.3 µM at hTRPV3 is 71.6%.

With `CC(C)c1ccccc1-c1ccc(N2CC[C@H](S(=O)(=O)c3ccc(Cl)cn3)C2)c(CO)c1` [Example 2, ((S)-(4-(3-(5-chloropyridin-2-yl)sulfonyl)pyrrolidin-1-yl)-2′-isopropyl-[1,1′-biphenyl]-3-yl) methanol], the inhibition at 0.3 µM at hTRPV3 was 18.6%.

Turning to `CC(C)c1ccccc1-c1ccc(N2CC[C@H]([S+]([O-])c3ccc(Cl)cn3)C2)c(CO)c1` (stereo partly shown) [Example 3], the inhibition at 0.3 µM on hTRPV3 came to 9.96%.

For `OCc1cc(-c2ccccc2C2CC2)ccc1N1CC[C@H](Sc2ccc(Cl)cn2)C1` [Example 4, ((S)-(4-(3-(5-chloropyridin-2-yl)thio)pyrrolidin-1-yl)-2′-cyclopropyl-[1,1′-biphenyl]-3-yl) methanol], the inhibition at 0.3 µM on hTRPV1 (0.3 μM, patch clamp method, read-out: Inhibition rate (%) on hTRPV1) stood at 0.48%; at hTRPV3, 72.8%; at hTRPV4 (0.3 μM, patch clamp method, read-out: Inhibition rate (%) on hTRPV4), 36.2%; at hTRPA1 (0.3 μM, patch clamp method, read-out: Inhibition rate (%) on hTRPA1), 2.44%. Moreover, on hTRPV1 (ratio of inhibition rate on TRPV3 to inhibition rate on hTRPV1, 0.3 μM), the “Selectivity ratio (hTRPV1)” value is on record as 152x. Further, the “Selectivity ratio (hTRPV3)” value at hTRPV3 (ratio of inhibition rate on TRPV3 to inhibition rate on this channel, 0.3 μM) was 1x. For the same compound, the “Selectivity ratio (hTRPV4)” value at hTRPV4 (ratio of inhibition rate on TRPV3 to inhibition rate on hTRPV4, 0.3 μM) amounted to 2x. The “Selectivity ratio (hTRPA1)” value at hTRPA1 (ratio of inhibition rate on TRPV3 to inhibition rate on hTRPA1, 0.3 μM) came to 30x.

As for `O=S(=O)(c1ccc(Cl)cn1)[C@H]1CCN(c2ccc(-c3ccccc3C3CC3)cc2CO)C1` [Example 5, (S)-(4-(3-((5-chloropyridin-2-yl)sulfonyl)pyrrolidin-1-yl)-2′-cyclopropyl-[1,1′-biphenyl]-3-yl) methanol], the inhibition at 0.3 µM at hTRPV3 amounted to 23.1%.

As for `[O-][S+](c1ccc(Cl)cn1)[C@H]1CCN(c2ccc(-c3ccccc3C3CC3)cc2CO)C1` (stereo partly shown) [Example 6], the inhibition at 0.3 µM at hTRPV3 amounted to 4.73%.

For the compound `CC(C)c1ccccc1-c1ccc(N2CC[C@H](Sc3ccc(C(F)(F)F)cn3)C2)c(CO)c1` [Example 7, ((S)-(2′-isopropyl-4-(3-(5-(trifluoromethyl)pyridin-2-yl)thio)pyrrolidin-1-yl)-[1,1′-biphenyl]-3-yl) methanol], at hTRPV3, the inhibition at 0.3 µM came out at 38%.

On to `OCc1cc(-c2ccccc2C2CC2)ccc1N1CC[C@H](Sc2ccc(F)cn2)C1` [Example 10, ((S)-(4-(3-(5-fluoropyridin-2-yl)thio)pyrrolidin-1-yl)-2′-cyclopropyl-[1,1′-biphenyl]-3-yl) methanol], for which the inhibition at 0.3 µM on hTRPV3 was 97.8%.
